In US7563791B2, “Pyrrolotriazine derivatives useful for treating hyper-proliferative disorders and diseases associated with angiogenesis” (Bayer Pharmaceuticals Corporation, priority 2004, dated 2009):

Test system: VEGF stimulated Phospho-ERK in HUVEC
Experiment: Growth factor stimulated p-ERK assay in HUVECs (VEGF stimulation, ERK1/2 Bioplex)
Format: cell-based
Details: Homo sapiens, compound 2 hrs, then 50 ng/ml VEGF 10 min; for inhibition at 0.1 µM: @ 100 nM
Procedure: Growth Factor Stimulated p-ERK assay in HUVECs
Exponentially growing human endothelial HUVECs cells (human umbilical vein endothelial cells, cat# CC-2517, Cambrex, Walkersville, Md.) were seeded at twenty five thousand cells/well in 96 well plates in EBM-2 MV medium with growth factors (cat# CC-3202, Cambrex) and grown at 37° C. in 5% CO2. Sixteen hours post-plating, the cells were changed to serum-free medium (RPMI 1640 containing 0.1% BSA (bovine serum albumin) and compounds were added at different concentrations for 2 hrs, after which the cells were stimulated for 10 min with 50 ng/ml of either VEGF (vascular endothelial growth factor, Protein Sciences, Meriden, Conn.) or bFGF (basic fibroblast growth factor cat# PHG0026, Biosource International, Camarillo, Calif.). The rest of the assay was performed per manufacturer indications for the ERK½ Bioplex assay (cat#171-304004, Bio-Rad, Hercules, Calif.). After removing culture medium by aspiration, the cells were quickly rinsed with 100 μl of cell wash buffer A to stop treatment reaction. Eighty microliters of cell lysis buffer were then immediately added to each well of the 96 well plate which was put on ice. Cells in each well were lysed by pipetting up and down 5 times with a multi-channel pipet. The plate was then agitated on a microtiter plate shaker at 300 rpm for 20 min at 4° C. Cellular debris were pelleted by centrifugation at 4500 g for 15 min at 4° C. and the supernatant was collected. Forty five microliters of supernatant was diluted with an equal volume of Bio-Plex phosphoprotein assay Buffer B, The coupled and color coated beads were added into a 96 well filter plate, and the prepared lysates were added. The beads and lysate mixture was incubated at room temperature for 15-18 hrs. The following day, the plate was vacuum-filtered and then washed 3×. Twenty-five microliters of detection antibody solution were added to each well and the plate was then incubated for 30 min at room temperature. The plate was then vaccum-filtered and washed as described previously. Fifty microliters of streptavidin-PE solution was added to each well, the plate was incubated for 10 min at room temperature and then was then vaccum-filtered and washed as described above. One hundred twenty-five microliters of resuspension buffer was added to each well and data were acquired on the Luminex 100 instrument (Bio-Rad).

SMILES	inhibition at 0.1 µM	inhibition at 1 µM	inhibition at 10 µM
CCOC(=O)c1cn2ncnc(N)c2c1-c1ccc(NC(=O)Nc2ccc(OC)c(CN3CCOCC3)c2)cc1 [Example 96, ethyl 4-amino-5-{4-[({[4-methoxy-3-(morpholin-4-ylmethyl)phenyl]amino}carbonyl)amino]phenyl}pyrrolo[2,1-f][1,2,4]triazine-6-carboxylate]	< 50%	< 50%	> 50%
CCOC(=O)c1cn2ncnc(N)c2c1-c1ccc(NC(=O)Nc2ccc(OC(F)(F)F)cc2)cc1 [Example 11, ethyl 4-amino-5-{4-[({[4-(trifluoromethoxy)phenyl]amino}carbonyl)amino]phenyl}pyrrolo[2,1-f][1,2,4]triazine-6-carboxylate]	< 50%	> 50%	
CCOC(=O)c1cn2ncnc(N)c2c1-c1ccc(NC(=O)Nc2cc(OC)ncn2)cc1 [Example 29, ethyl 4-amino-5-[4-({[(6-methoxypyrimidin-4-yl)amino]carbonyl}amino)phenyl]pyrrolo[2,1-f][1,2,4]triazine-6-carboxylate]	< 50%	> 50%	
CCOC(=O)c1cn2ncnc(N)c2c1-c1ccc(NC(=O)Nc2ccccc2OC(F)(F)F)cc1 [Example 8, ethyl 4-amino-5-{4-[({[2-(trifluoromethoxy)phenyl]amino}carbonyl)amino]phenyl}pyrrolo[2,1-f][1,2,4]triazine-6-carboxylate]	> 50%		
Nc1ncnn2cc(CNc3cccnc3)c(-c3ccc(NC(=O)Nc4cc(C(F)(F)F)ccc4F)cc3)c12 [Example 47, N-(4-{4-amino-6-[(pyridin-3-ylamino)methyl]pyrrolo[2,1-f][1,2,4]triazin-5-yl}phenyl)-N′-[2-fluoro-5-(trifluoromethyl)phenyl]urea]	< 50%	> 50%	
Cc1cn2ncnc(N)c2c1-c1ccc(NC(=O)Nc2cc(C(F)(F)F)ccc2F)cc1 [Example 85, N-[4-(4-amino-6-methylpyrrolo[2,1-f][1,2,4]triazin-5-yl)phenyl]-N′-[2-fluoro-5-(trifluoromethyl)phenyl]urea]	< 50%	> 50%	
COCCNCc1cn2ncnc(N)c2c1-c1ccc(NC(=O)Nc2cc(C(F)(F)F)ccc2F)cc1 [Example 32, N-[4-(4-amino-6-{[(2-methoxyethyl)amino]methyl}pyrrolo[2,1-f][1,2,4]triazin-5-yl)phenyl]-N′-[2-fluoro-5-(trifluoromethyl)phenyl]urea]	> 50%		
CCOC(=O)c1cn2ncnc(N)c2c1-c1ccc(NC(=O)Nc2cc(C(F)(F)F)ccc2N2CCOCC2)cc1 [Example 27, ethyl 4-amino-5-{4-[({[2-morpholin-4-yl-5-(trifluoromethyl)phenyl]amino}carbonyl)amino]phenyl}pyrrolo[2,1-f][1,2,4]triazine-6-carboxylate]	> 50%		
CCOC(=O)c1cn2ncnc(N)c2c1-c1ccc(NC(=O)Nc2cc(C(F)(F)F)cc(C(F)(F)F)c2)cc1 [Example 26, ethyl 4-amino-5-{4-[({[3,5-bis(trifluoromethyl)phenyl]amino}carbonyl)amino]phenyl}pyrrolo[2,1-f][1,2,4]triazine-6-carboxylate]	< 50%	> 50%	
CN(C)CCNCc1cn2ncnc(N)c2c1-c1ccc(NC(=O)Nc2cc(C(F)(F)F)ccc2F)cc1 [Example 37, N-{4-[4-amino-6-({[2-(dimethylamino)ethyl]amino}methyl)pyrrolo[2,1-f][1,2,4]triazin-5-yl]phenyl}-N′-[2-fluoro-5-(trifluoromethyl)phenyl]urea]	< 50%	> 50%	
CCOC(=O)c1cn2ncnc(N)c2c1-c1ccc(NC(=O)Nc2ccc3c(c2)OC(F)(F)O3)cc1 [Example 14, ethyl 4-amino-5-[4-({[(2,2-difluoro-1,3-benzodioxol-5-yl)amino]carbonyl}amino)phenyl]pyrrolo[2,1-f][1,2,4]triazine-6-carboxylate]	< 50%	< 50%	> 50%
CCOC(=O)c1cn2ncnc(N)c2c1-c1ccc(NC(=O)Nc2ccc3c(c2)OC(F)(F)C(F)(F)O3)cc1 [Example 22, ethyl 4-amino-5-[4-({[(2,2,3,3-tetrafluoro-2,3-dihydro-1,4-benzodioxin-6-yl)amino]carbonyl}amino)phenyl]pyrrolo[2,1-f][1,2,4]triazine-6-carboxylate]	< 50%	> 50%	
CC(C)(CO)NC(=O)c1cn2ncnc(N)c2c1-c1ccc(NC(=O)Nc2cc(C(F)(F)F)ccc2Cl)cc1 [Example 143, 4-amino-5-{4-[({[2-chloro-5-(trifluoromethyl)phenyl]amino}carbonyl)amino]phenyl}-N-(2-hydroxy-1,1-dimethylethyl)pyrrolo[2,1-f][1,2,4]triazine-6-carboxamide]	< 50%	> 50%	
CCOC(=O)c1cn2ncnc(N)c2c1-c1ccc(NC(=O)Nc2ccc3c(cnn3C)c2)cc1 [Example 12]	> 50%		
COCCNC(=O)c1cn2ncnc(N)c2c1-c1ccc(NC(=O)Nc2cccc(SC(F)(F)F)c2)cc1 [Example 131, 4-amino-N-(2-methoxyethyl)-5-(4-{[({3-[(trifluoromethyl)thio]phenyl}amino)carbonyl]amino}phenyl)pyrrolo[2,1-f][1,2,4]triazine-6-carboxamide]	< 50%	> 50%	
CCOC(=O)c1cn2ncnc(N)c2c1-c1ccc(NC(=O)Nc2cccc(OC(F)(F)F)c2)cc1 [Example 9, ethyl 4-amino-5-{4-[({[3-(trifluoromethoxy)phenyl]amino}carbonyl)amino]phenyl}pyrrolo[2,1-f][1,2,4]triazine-6-carboxylate]	> 50%		
CCOC(=O)c1cn2ncnc(N)c2c1-c1ccc(NC(=O)Nc2cccc(OCCN(CC)CC)c2)cc1 [Example 98, ethyl 4-amino-5-(4-{[({3-[2-(diethylamino)ethoxy]phenyl}amino)carbonyl]amino}phenyl)pyrrolo[2,1-f][1,2,4]triazine-6-carboxylate]	< 50%	< 50%	> 50%
COCCN1CCN(Cc2cn3ncnc(N)c3c2-c2ccc(NC(=O)Nc3cc(C(F)(F)F)ccc3F)cc2)CC1 [Example 41, N-[4-(4-amino-6-{[4-(2-methoxyethyl)piperazin-1-yl]methyl}pyrrolo[2,1-f][1,2,4]triazin-5-yl)phenyl]-N′-[2-fluoro-5-(trifluoromethyl)phenyl]urea]	< 50%	> 50%	
CCOC(=O)c1cn2ncnc(N)c2c1-c1ccc(NC(=O)Nc2cc(C(C)(C)C)nn2C)cc1 [Example 49, ethyl 4-amino-5-[4-({[(3-tert-butyl-1-methyl-1H-pyrazol-5-yl)amino]carbonyl}amino)phenyl]pyrrolo[2,1-f][1,2,4]triazine-6-carboxylate]	> 50%		
CC(C)(C)NC(=O)c1cn2ncnc(N)c2c1-c1ccc(NC(=O)Nc2cc(C(F)(F)F)ccc2F)cc1 [Example 75, 4-amino-N-(tert-butyl)-5-{4-[({[2-fluoro-5-(trifluoromethyl)phenyl]amino}carbonyl)amino]phenyl}pyrrolo[2,1-f][1,2,4]triazine-6-carboxamide]	< 50%	> 50%	
CCOC(=O)c1cn2ncnc(N)c2c1-c1ccc(NC(=O)Nc2ccccc2)cc1 [Example 23, ethyl 4-amino-5-{4-[(anilinocarbonyl)amino]phenyl}pyrrolo[2,1-f][1,2,4]triazine-6-carboxylate]	> 50%		
Nc1ncnn2cc(C(=O)NCCCN3CCCC3)c(-c3ccc(NC(=O)Nc4cc(C(F)(F)F)ccc4F)cc3)c12 [Example 62, 4-amino-5-{4-[({[2-fluoro-5-(trifluoromethyl)phenyl]amino}carbonyl)amino]phenyl}-N-(3-pyrrolidin-1-ylpropyl)pyrrolo[2,1-f][1,2,4]triazine-6-carboxamide]	< 50%	< 50%	> 50%
N#Cc1cn2ncnc(N)c2c1-c1ccc(NC(=O)Nc2cccc(C(F)(F)F)n2)cc1 [Example 168, N-[4-(4-amino-6-cyanopyrrolo[2,1-f][1,2,4]triazin-5-yl)phenyl]-N′-[6-(trifluoromethyl)pyridin-2-yl]urea]	< 50%	> 50%	
NC(=O)c1cn2ncnc(N)c2c1-c1ccc(NC(=O)Nc2cc(C(F)(F)F)ccc2F)cc1 [Example 104, 4-amino-5-{4-[({[2-fluoro-5-(trifluoromethyl)phenyl]amino}carbonyl)amino]phenyl}pyrrolo[2,1-f][1,2,4]triazine-6-carboxamide]	< 50%	< 50%	> 50%
